Measured values reported in US5762956A, “Transdermal contraceptive delivery system and process” (priority 1996, dated 1998).

How the values were obtained:
[1] = test system: Rabbit Skin; experiment: Residual drug assay of patches from dermal toxicity test (daily delivery rate into rabbit); details: for in vivo delivery rate compared with in vitro rate: rabbit vs in vitro; for Daily Delivery Rate: rabbit, N = 6, ± S.D.
Procedure: The test consists of an one-week primary skin irritation study on six rabbits followed by histopathological examination on each patch application. Both medicated and placebo patches of this TCDS formulation were tested on either intact or abraded skin. Based on the Draize Scale Scoring Method, the primary dermal irritation index (PDII) was given to each patch application site at 24 and 72 hours following the 7 days application period. The patches used in the primary skin irritation test were retrieved for residual drug assay to determine the amount of drugs delivered into the test animal.

[2] = Phase I serum levonorgestrel by radioimmunoassay; format: in vivo, human (fertile Chinese women); details: Groups B and C, three weeks of patch application
Procedure: Blood samples obtained from these three cycles of studies were assayed by radioimmunoassay (RIA) methods for their serum concentration of levonorgestrel, estradiol, progesterone, luteinizing hormone (LH) and follicle stimulating hormone (FSH). Ultrasonic measurement of follicle size and endometrium thickness measurement were also performed during the mid-treatment cycle. Bioavailability of levonorgestrel was assessed by the serum levonorgestrel profile of each subject group. Suppression of post-ovulatory progesterone peak and mid-cycle surges of LH and FSH provided hormonal indications of ovulation inhibition.

[3] = Phase I residual drug assay of used patches (daily delivery rate); details: for relationship between daily delivery rate and dosage: 1, 2 or 3 × 10 cm^2 TCDS patches; for Daily Delivery Rate: ± S.D.
Source text: In this study, healthy female subjects of child-bearing age were randomly divided into 4 groups in a 4-way parallel study design (See Table 5). The study consists of three menstrual cycles which are sequentially arranged as pre-treatment, treatment and post-treatment cycles. During the pre-treatment cycle, the 48 recruited subjects were given placebo TCDS patches to study the wearability (including skin irritation and adhesion tests) while they were being screened against the inclusion/exclusion criteria specified in the clinical protocol. During the treatment cycle, each of the […] in Group A, B and C received weekly application of 1, 2 or 3 pieces of 10 cm^2 TCDS patches, respectively, while each subject in Group D received one oral contraceptive pill (each pill contains 150 μg of levonorgestrel and 35 μg of ethynyl estradiol) per day as reference.

[4] = In-vitro drug permeation study, human cadaver skin, Valia-Chien cell, HPLC; format: in vitro ADME; details: from 10 cm^2 TCDS patch of Example 1, steady state
Procedure: The samples taken from the receptor compartment of the diffusion cell were analyzed by high performance liquid chromatography.
The skin permeation flux of each drug was subsequently calculated from the steady state of the permeation profile.

SMILES | in vivo delivery rate compared with in vitro rate [1] | serum concentration of levonorgestrel versus target concentration [2] | relationship between daily delivery rate and dosage [3] | skin permeation flux / amount delivered [4] | Daily Delivery Rate ([1]; abraded skin) [µg/day] | Daily Delivery Rate ([1]; intact skin) [µg/day] | Daily Delivery Rate ([3]; Group A: 1 × 10 cm^2 patch/week) [µg/day] | Daily Delivery Rate ([3]; Group B: 2 × 10 cm^2 patch/week) [µg/day] | Daily Delivery Rate ([3]; Group C: 3 × 10 cm^2 patch/week) [µg/day]
C#C[C@]1(O)CC[C@H]2[C@@H]3CCC4=CC(=O)CC[C@@H]4[C@H]3CC[C@@]21CC [Levonorgestrel, levonorgestrel] | seems to correlate very well with the in vitro delivery rate | above the target concentration throughout the three weeks of patch application | linearly proportional to the increase in dosage of TCDS patches | about 60.0±9.42 μg/day |  |  |  |  | 
C[C@]12CC[C@@H]3c4ccc(O)cc4CC[C@H]3[C@@H]1CC[C@@H]2O [17-beta-estradiol] | higher than skin permeation rate obtained in the in vitro study |  | established only for the dosages of the first and second pieces of 10 cm^2 TCDS patches | ~28.8 µg/day | 35.1 ± 26.70 | 37.0 ± 19.77 | 42.1 ± 16.32 | 89.7 ± 28.4 | 110.4 ± 28.61
